Source: PubChem BioAssay (NCI)
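Compound exposure: 48 hours, 5 concentrations, 96-well plates. GI50: concentration for 50% inhibition of growth. TGI denotes the concentration required for complete inhibition of growth.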

How the values were obtained:
Test in all cases: growth of human tumour cells (NCI), 48 h
[1] = test system: EKVX NSCLC
[2] = test system: HCC-2998 colon
[3] = test system: HT29 colon
[4] = test system: LOX IMVI melanoma
[5] = test system: NCI-H460 lung
[6] = test system: OVCAR-3 ovarian
[7] = test system: SK-MEL-28 melanoma
[8] = test system: SR leukemia

O=C(O)CCSC(=O)Nc1ccc([N+](=O)[O-])cc1
TGI [1]: > 100 µM
TGI [2]: > 100 µM
TGI [3]: > 100 µM
TGI [4]: > 100 µM
TGI [5]: > 100 µM
TGI [6]: > 100 µM
TGI [7]: > 100 µM
TGI [8]: > 100 µM

CC[C@@]1(c2ccccc2)C2=C(CC(C)(C)CC2=O)Nc2[nH]ncc21
GI50 [1]: > 100 µM
TGI [1]: > 100 µM
GI50 [2]: > 100 µM
TGI [2]: > 100 µM
GI50 [3]: > 100 µM
TGI [3]: > 100 µM
GI50 [4]: > 100 µM
TGI [4]: > 100 µM
GI50 [5]: > 100 µM
TGI [5]: > 100 µM
GI50 [6]: > 100 µM
TGI [6]: > 100 µM
GI50 [7]: > 100 µM
TGI [7]: > 100 µM
GI50 [8]: > 100 µM
TGI [8]: > 100 µM

O=C(CCN(C(=O)O)S(=O)(=O)c1ccc(NC(=O)c2ccccc2)cc1)NC1CCCCC1
TGI [1]: > 100 µM
TGI [2]: > 100 µM
TGI [3]: 56.8 µM
TGI [4]: > 100 µM
TGI [5]: > 100 µM
TGI [6]: > 100 µM
TGI [7]: > 100 µM
TGI [8]: > 100 µM

COc1cc2ncn(-c3cc(OCc4cccs4)c(C(N)=O)s3)c2cc1OC
GI50 [1]: 7.93 µM
TGI [1]: > 25 µM
GI50 [2]: 2.29 µM
TGI [2]: > 25 µM
GI50 [3]: 0.875 µM
TGI [3]: > 25 µM
GI50 [4]: 1.19 µM
TGI [4]: > 19.2 µM
GI50 [5]: 1.06 µM
TGI [5]: > 10.5 µM
GI50 [6]: 0.828 µM
TGI [6]: > 6.89 µM
GI50 [7]: 7.62 µM
TGI [7]: > 25 µM
GI50 [8]: 1.48 µM
TGI [8]: > 25 µM

CCOCC(=O)N[C@H]1CCc2cc(OC)c(OC)c(OC)c2-c2ccc(OC)c(=O)cc21
TGI [1]: > 100 µM
TGI [2]: 5.27 µM
TGI [3]: > 8.15 µM
TGI [4]: > 100 µM
TGI [5]: > 16.7 µM
TGI [6]: 0.0849 µM
TGI [7]: > 100 µM
TGI [8]: > 100 µM

O=C1Nc2ccccc2C1(c1ccc(O)cc1)c1ccc(O)cc1
GI50 [1]: 14.5 µM
TGI [1]: 90 µM
GI50 [2]: 1.99 µM
TGI [2]: 27 µM
GI50 [3]: 29.3 µM
TGI [3]: > 90 µM
GI50 [4]: 5.97 µM
TGI [4]: 35.9 µM
GI50 [5]: 18.5 µM
TGI [5]: 37.9 µM
GI50 [6]: 0.11 µM
TGI [6]: 0.899 µM
GI50 [7]: 26.9 µM
TGI [7]: 65.7 µM
GI50 [8]: 32.9 µM
TGI [8]: > 96.3 µM

C=C(C[C@](O)(C(=O)/C=C/c1ccc(Cl)cc1)C(=O)OC)c1ccccc1
GI50 [1]: 4.16 µM
TGI [1]: 16.9 µM
GI50 [2]: 1.84 µM
TGI [2]: 3.42 µM
GI50 [3]: 1.9 µM
TGI [3]: 4.65 µM
GI50 [4]: 0.719 µM
TGI [4]: 2.24 µM
GI50 [5]: 2.44 µM
TGI [5]: 6.31 µM
GI50 [6]: 1.56 µM
TGI [6]: 3.08 µM
GI50 [7]: 2.04 µM
TGI [7]: 4.98 µM
GI50 [8]: 1.59 µM
TGI [8]: 7.7 µM

O=C(Nc1ccncc1)C(=O)c1cn(S(=O)(=O)c2cccc(F)c2)c2ccccc12
GI50 [1]: 4.17 µM
TGI [1]: > 100 µM
GI50 [2]: 2.2 µM
TGI [2]: 89.3 µM
GI50 [3]: 1.77 µM
TGI [3]: 14.9 µM
GI50 [4]: 3.51 µM
TGI [4]: > 100 µM
GI50 [5]: 13 µM
TGI [5]: > 100 µM
GI50 [6]: 2.65 µM
TGI [6]: 12.5 µM
GI50 [7]: 4.74 µM
TGI [7]: 60.5 µM
GI50 [8]: 0.552 µM
TGI [8]: > 100 µM
